The assay deals with histamine H1 receptor (H1R) (Homo sapiens, UniProt P35367). The assay can be described thus: [3H]-thymidine incorporation in CHO-H1R cells. It is filed as cell-based.

SMILES strings stand for the structures.

histamine H1 receptor (H1R), sequence (P35367 whole entry): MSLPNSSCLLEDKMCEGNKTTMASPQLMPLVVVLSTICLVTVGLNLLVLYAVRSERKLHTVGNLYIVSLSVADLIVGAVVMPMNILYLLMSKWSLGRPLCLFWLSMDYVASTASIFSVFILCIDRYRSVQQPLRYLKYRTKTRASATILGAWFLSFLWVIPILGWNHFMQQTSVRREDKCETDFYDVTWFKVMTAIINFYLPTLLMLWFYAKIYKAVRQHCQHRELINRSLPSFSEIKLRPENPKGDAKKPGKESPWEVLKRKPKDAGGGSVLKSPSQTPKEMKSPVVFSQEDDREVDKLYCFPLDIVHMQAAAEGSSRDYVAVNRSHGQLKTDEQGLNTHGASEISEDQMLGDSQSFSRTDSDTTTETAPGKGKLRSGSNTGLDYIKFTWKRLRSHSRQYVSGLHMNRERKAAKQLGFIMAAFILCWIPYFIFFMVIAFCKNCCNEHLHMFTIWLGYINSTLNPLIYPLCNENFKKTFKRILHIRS

`NCCc1cnc(-c2cccc(C(F)(F)F)c2)[nH]1` [H1, 2,3-trifluormetilfenilhistamine]: the EC50 came to 23.1 ± 3.6 µM.

Values taken from paper PMC12985397 (Experimental cell research, 2009).
